{"source": "patent US11530196B2", "about": "“Pyrimidine compound acting on EGFR and ERBB2” (CHINA RESOURCES PHARMACEUTICAL HOLDINGS COMPANY LIMITED, priority 2019, dated 2022)", "system": "Ba/F3 (EGFR-D770_N771insSVD) subcutaneous allograft tumor", "experiment": "Ba/F3 EGFR D770_N771 ins SVD subcutaneous allograft tumor model", "format": "in vivo, Nude mouse (BALB/c Nude)", "method": "Ba/F3 (EGFR-D770_N771insSVD) cells were artificially constructed cell lines with EGFR-D770_N771insSVD insertion mutation using mouse B cells. The CDX model established by this cell line was used to evaluate the inhibitory effect of preferred compounds on Exon 20 EGFR-D770_N771insSVD insertion mutation in animals.\nNude mouse (BALB/c Nude), Ba/F3 (EGFR-D770_N771insSVD) cell line\n1. Cell culture: cells were cultured in vitro in monolayer, culture conditions were RPMI-1640 (cell culture medium) with 10% fetal bovine serum, 100 U/mL penicillin and 100 µg/mL streptomycin, the cells were cultured at a 37° C., 5% CO2 incubator. Conventional digestion with trypsin-EDTA was performed twice a week for passage. When the saturation of Ba/F3 (EGFR-D770_N771insSVD) cell was 80%-90%, and the number reached the requirement, the cells were harvested and counted. The density was 5×10^6 cells.\n2. Cell inoculation: 0.2 mL (containing 5×10^6 cells) of Ba/F3 (EGFR-D770_N771insSVD) cell suspension (PBS:Matrigel=1:1) was inoculated subcutaneously on the right back of each mouse, for a total of 64 mice. On the 7th day after inoculation, when the average tumor volume reached 133 mm^3, the randomized stratified grouping method was used to start the grouping administration according to the tumor volume and animal weight. PBS was phosphate buffer and Matrigel was matrix.\n3. Administration: The dose was 0-7 days: 10 mg/kg, 8-21 days: 40 mg/kg; oral administration; administration frequency: once a day×3 weeks.\nTumor diameters were measured with vernier calipers twice a week. The calculation formula of tumor volume was: V=0.5a×b^2, wherein a and b represented the long and short diameters of the tumor, respectively.\nThe antitumor efficacy of the compounds was evaluated by TGI (%) or relative tumor proliferation rate T/C (%).\nRelative tumor proliferation rate T/C (%)=TRTV/CRTV×100% (TRTV: mean RTV in the treatment group; CRTV: mean RTV in the solvent control group).\nThe relative tumor volume (RTV) was calculated according to the results of tumor measurement. The calculation formula was RTV=Vt/V0, wherein V0 was the tumor volume measured at the time of group administration (i.e., D0), and Vt was the tumor volume corresponding to a certain measurement. TRTV and CRTV were taken on the same day.\nTGI (%), reflecting the tumor growth inhibition rate. TGI (%)=[(1−(average tumor volume at the end of administration of a treatment group−average tumor volume at the beginning of administration of this treatment group))/(average tumor volume at the end of treatment in the solvent control group−average tumor volume at the beginning of treatment of the solvent control group)]×100%.", "key": {"[1]": {"details": "Day 14, oral once a day, 0-7 days 10 mg/kg, 8-21 days 40 mg/kg"}}}
{"molecule": "C=CC(=O)Nc1cc(Nc2ncc(C(=O)OC(C)C)c(-c3cn(OC)c4ccccc34)n2)c(OC)cc1N(C)CCN(C)C.CS(=O)(=O)O", "note": "[Compound 1]", "values": [{"measurement": "Tumor volume (Day 0)", "setting": "Day 0 (grouping), mean ± standard error, n = 6", "value": "133.2 ± 8.2", "unit": "mm^3"}, {"measurement": "RTV", "setting": "[1]", "value": 1.9}, {"measurement": "T/C", "setting": "[1]", "value": 14.9, "unit": "%"}, {"measurement": "TGI", "setting": "[1]", "value": 92.1, "unit": "%"}, {"measurement": "Tumor volume (Day 14)", "setting": "[1]", "value": "259.1 ± 35.2", "unit": "mm^3"}]}
